10 compounds from PubChem BioAssay (NCI) can be followed below.

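Test compounds were applied to cells in 96-well plates for 48 hours at 5 doses. The concentration for 50% growth inhibition is given as GI50. TGI: total growth inhibition.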

Assay in all cases: NCI-60 cell line screen, 48 h
Experiment [1] deals with CAKI-1 renal.
In experiment [2] the test system is NCI-H460 lung.
The subject of experiment [3] is SF-539 CNS.
The test system of experiment [4] is MOLT-4 leukemia.
For experiment [5], the system named is CCRF-CEM leukemia.
Experiment [6] relates to SK-MEL-5 melanoma.
The test system of experiment [7] is OVCAR-4 ovarian.
The subject of experiment [8] is NCI-H23 lung.
Experiment [9] has as its system LOX IMVI melanoma.
In experiment [10] the test system is U251 CNS.

With `COc1cc(CN(c2ccc(C)cc2)C2OC(=O)c3ccccc32)cc(OC)c1OC` (centres undefined), the GI50 in experiment [1] was 0.472 µM; in experiment [2] it was 0.453 µM; in experiment [3], 0.393 µM; in experiment [4], 0.908 µM; in [5], 0.375 µM; in experiment [6] it was 0.271 µM. Also, the GI50 in [7] was 2.93 µM; in experiment [8] it was 0.427 µM; in experiment [9], 0.635 µM; in [10], 0.397 µM. In addition, the TGI in experiment [1] was > 100 µM; in experiment [2], > 100 µM; in experiment [3], > 100 µM; in experiment [4], > 100 µM; in experiment [5] it was > 100 µM; in experiment [6], 1.76 µM. Further, the TGI in experiment [7], in experiment [9] and in [10] was > 100 µM in each case.

As for `C/C(=N\NC(N)=S)c1sc(-n2nc(-c3ccccc3)cc2-c2ccccc2)nc1C`, the TGI in experiment [1], in experiment [2], in experiment [3], in experiment [4], in experiment [5] and in experiment [6] was > 100 µM each time. For the same compound, the TGI in [7], in [8], in [9] and in [10] was > 100 µM in each case.

With `O=C1C=C(Nc2ccc(S(=O)(=O)Nc3ncccn3)cc2)c2ccccc2C1=O`, the TGI in [1] was 89.1 µM; in [2] it was 42.7 µM; in experiment [3], 58.4 µM; in [4], > 100 µM; in experiment [5], > 100 µM; in experiment [6], 32.9 µM. The TGI in experiment [7] came to 38.8 µM; in [8], 34.1 µM; in experiment [9], 30 µM; in experiment [10], 31.5 µM.

On to `Oc1c(O)c(Cl)c(Cl)c(Cl)c1Cl`, for which the GI50 in experiment [1] was 6.33 µM; in experiment [2], 2.62 µM; in experiment [3], 3.72 µM; in experiment [4], 3.51 µM; in experiment [5], 2.73 µM; in experiment [6] it was 3.37 µM. Moreover, the GI50 in experiment [7] was 2.44 µM; in experiment [8], 3.04 µM; in experiment [9] it was 3.65 µM; in experiment [10], 4.21 µM. For the same compound, the TGI was determined as 23 µM in experiment [1]; 13.3 µM in [2]; 14.7 µM in [3]; 69.7 µM in experiment [4]; 27.7 µM in experiment [5]; 13.4 µM in [6]. Moreover, the TGI in experiment [7] was 8.86 µM; in [8] it was 9.28 µM; in experiment [9], 20.3 µM; in [10], 86.2 µM.

Consider `C[C@H](NC(=O)c1c(C(F)F)nn(C)c1Oc1cccc(C(F)(F)F)c1)c1ccc(C(=O)O)cc1`, for which the GI50 in [1], in [2], in experiment [3], in [4], in [5] and in [6] was > 100 µM throughout. The GI50 in experiment [7], in experiment [8], in [9] and in experiment [10] was > 100 µM throughout. In addition, the TGI in experiment [1], in experiment [2], in experiment [3], in experiment [4], in experiment [5] and in experiment [6] was > 100 µM in each case. The TGI in experiment [7], in [8], in experiment [9] and in [10] was > 100 µM each time.

With `O=C(Oc1ccccc1)C(Br)C(Br)c1ccccc1` (centres undefined), the GI50 is 1.65 µM in experiment [1]; 14.5 µM in experiment [2]; 4.76 µM in experiment [3]; 3.09 µM in experiment [4]; 1.39 µM in [5]; 13.1 µM in [6]. Besides, the GI50 in experiment [7] was 2.25 µM; in [8], 7.2 µM; in experiment [9], 1.9 µM; in experiment [10] it was 4.13 µM. Moreover, the TGI in experiment [1] came out at 3.06 µM; in experiment [2], 29.8 µM; in [3], 16.4 µM; in experiment [4] it was 11.9 µM; in [5] it was 6.68 µM; in experiment [6], 25.8 µM. Further, the TGI in experiment [7] was 5.04 µM; in [8], 24.3 µM; in [9] it was 4 µM; in experiment [10] it was 15.8 µM.

Turning to `Nc1nc2c(ccc3ccccc32)s1`, the GI50 in [1] was 26.7 µM; in experiment [2] it was > 100 µM; in [3], > 100 µM; in [4], 12.7 µM; in [5], 48.1 µM; in [6], 72.7 µM. Moreover, the GI50 was > 100 µM in experiment [7], > 100 µM in experiment [8], 78.2 µM in [9] and > 100 µM in experiment [10]. The TGI is 67.5 µM in [1]; > 100 µM in [2]; > 100 µM in experiment [3]; > 100 µM in experiment [4]; > 100 µM in experiment [5]; > 100 µM in [6]. The TGI in [7], in [8], in [9] and in [10] was > 100 µM in each case.

In the case of `C1CC2=C(C1)C1=S(S2)SC2=C1CCC2`, the TGI in experiment [1], in experiment [2], in experiment [3], in [4], in experiment [5] and in experiment [6] was > 100 µM throughout. The TGI in experiment [7], in experiment [8], in experiment [9] and in experiment [10] was > 100 µM in each case.

With `O=C(N/C(=C/c1cccc([N+](=O)[O-])c1)c1nc2ccc(Cl)cc2[nH]1)c1ccccc1`, the TGI in experiment [1] is 71.3 µM; in [2], 51.7 µM; in [3] it was 12.5 µM; in experiment [4], 49 µM; in experiment [5] it was 48 µM; in experiment [6] it was 12.7 µM. Moreover, the TGI was 90.5 µM in experiment [7], 99.5 µM in experiment [8], 58.3 µM in experiment [9] and 25.4 µM in experiment [10].

Take `CCn1c(=N)sc2nc3ccccc3n2c1=O`: the TGI in [1], in experiment [2], in experiment [3], in experiment [4], in experiment [5] and in [6] was > 100 µM in each case. The TGI in experiment [7], in experiment [8], in experiment [9] and in experiment [10] was > 100 µM throughout.
